# Ends that are not written are not given here.
# Columns and labels:
# GPNMB protein = assay: Antibody titer by ELISA in plasma of vaccinated mice; format: in vivo, C57BL/6 mice; settings: vs control vaccine group; KLH-bound peptide 20 μg with Titer Max Gold s.c. at 8 weeks of age, HFD-fed mice; plasma up to 6 weeks; FIG. 2A
# Procedure: First, the antibody titers of the obtained two peptide vaccines were examined. Peptide vaccine 1 or peptide vaccine 2 (20 μg) and Titer Max Gold adjuvant (Titer Max USA) conjugated with KLH as carrier protein for induction of cytotoxic antibody were mixed in two syringes according to the manufacturer's protocol for emulsification. Subsequently, eight-week-old C57BL/6 mice fed with HFD from 4 weeks of age were subcutaneously injected with KLH-binding antigen peptide (20 μg) with a Titer Max Gold adjuvant to induce cytotoxic antibodies. C57BL/6 mice in the control group were subcutaneously injected with a KLH solution (hereinafter, referred to as “control vaccine”) mixed with Titer Max Gold in an equal amount. Plasma was collected from the tail vein of each mouse immediately after administration of the peptide vaccine and after 2, 4, and 6 weeks for antibody titer analysis. The antibody titer produced by injection of each peptide was measured by ELISA. Specifically, first, a 96-well microtiter plate (Nunc-Immuno MicroWell 96-well solid plate, Thermo Scientific) was coated using a carbonate buffer containing peptide vaccine 1 or peptide vaccine 2 bonded to bovine serum albumin (BSA). […] After reacting with the TMB substrate (Sigma-Aldrich, T0440), the optical density was measured at 450 nm (0D450) using a microtiter plate reader (iMark microplate reader, Bio-Rad).
# [1] = Metabolic test (glucose tolerance test and insulin tolerance test); format: in vivo, C57BL/6 mice; settings: HFD-fed mice, 16 weeks of age, s.c. vaccination at 8 weeks of age; compared to control vaccine; FIG. 2I
# Procedure: Mice were bred individually from 1 week before the test. On the day of the glucose tolerance test (GTT), mice were fasted for 6 hours, followed by intraperitoneal injection of glucose at a dose of 1 g/kg (body weight) in the early afternoon. For the insulin tolerance test (ITT), mice were intraperitoneally administered with human insulin (1 U/kg (body weight)). After administration of glucose or insulin, tail venous blood was collected 0, 15, 30, 60 and 120 minutes later, and the blood glucose level was measured with a glucose analyzer (Sanwa Chemical Research Institute).
# A metabolic test was performed using the same method as in “5.” of Reference Example 1, except that C57BL/6 mice (16 weeks of age) bred by feeding HFD from 4 weeks of age and administered with peptide vaccine 1, peptide vaccine 2, or control vaccine by subcutaneous injection at a time point of 8 weeks of age were used. In FIG. 2I, “Cont vaccine” is a C57BL/6 mouse administered with a control vaccine, “Gpnmb vaccine 1” is a C57BL/6 mouse administered with peptide vaccine 1, and “Gpnmb vaccine 2” is a C57BL/6 mouse administered with peptide vaccine 2.
# GPNMB-positive cells = assay: Analysis of Gpnmb-dependent luciferase activity (in vivo IVIS imaging); design: species or system Gpnmb-DTR mouse; settings: Reference Example 1; HFD-fed Gpnmb-DTR mice, DT 50 μg/kg i.p. twice (12 and 14 weeks of age), 16 weeks of age; FIG. 1B
# Procedure: Gpnmb-DTR mouse bred by feeding normal diet or HFD for 4 weeks, and Gpnmb-DTR mouse bred by feeding HFD for 4 weeks, and then injecting DT (50 μg/kg body weight) at 2-week intervals (12 weeks of age and 14 weeks of age) intraperitoneally twice while continuing to feed HFD (16 weeks of age) were subjected to in vivo luciferase imaging analysis using the IVIS imaging system (Perkin Elmer). Mice were shaved ventrally, anesthetized with isoflurane (Wako Pure Chemicals Industries), and injected intraperitoneally with luciferin (150 mg/kg body weight) according to the manufacturer's instructions (Vivo-Glo; Promega). Luciferase activity was monitored 5 minutes after luciferin administration. Signals were analyzed using Living Image software (Perkin Elmer) to quantify luciferase activity. In FIG. 1B, “Before” is a Gpnmb-DTR mouse before HFD was fed (6 weeks of age), “HFD” is a Gpnmb-DTR mouse that was fed with HFD from 6 weeks of age and bred for 6 weeks (12 weeks of age), and “After DT” is a Gpnmb-DTR mouse that was bred by feeding HFD for 4 weeks and then injecting DT (50 μg/kg body weight) at 2-week intervals (12 weeks of age and 14 weeks of age) intraperitoneally twice while continuing to feed HFD (16 weeks of age). […]
Substance,antibody titer against GPNMB protein (GPNMB protein),metabolic abnormality induced by HFD intake (glucose tolerance test and insulin tolerance test) [1],abdominal luciferase activity (Gpnmb-dependent) (GPNMB-positive cells)
"RSQHLRFPDR (also: KLH conjugate; listed as Mus musculus) [peptide vaccine 2, peptide of positions 150 to 159 of mouse GPNMB protein]",slightly higher,significantly improved,
"diphtheria toxin [DT, reference compound]",,,attenuated

# — US20220267374A1, “IMMUNITY INDUCER AND PHARMACEUTICAL COMPOSITION FOR PREVENTING OR TREATING AGING-RELATED DISEASES” (priority 2019, published 2022)
